Results: PubChem BioAssay (NCI)
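Briefly, cells in 96-well plates were exposed to five compound concentrations for 48 h, and endpoints were estimated by linear interpolation. TGI is the concentration that stops growth completely.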

Experiments:
Experiment in all cases: NCI tumour cell line growth inhibition, 48 h
786-0 renal = tested on: 786-0 renal
A498 renal = tested on: A498 renal
A549 NSCLC = tested on: A549 NSCLC
ACHN renal = tested on: ACHN renal
CAKI-1 renal = tested on: CAKI-1 renal
CCRF-CEM leukemia = tested on: CCRF-CEM leukemia
COLO 205 colon = tested on: COLO 205 colon
DLD-1 colon = tested on: DLD-1 colon
DMS 114 small cell lung = tested on: DMS 114 small cell lung
EKVX NSCLC = tested on: EKVX NSCLC
HCC-2998 colon = tested on: HCC-2998 colon
HCT-116 colon = tested on: HCT-116 colon
HCT-15 colon = tested on: HCT-15 colon
HOP-18 NSCLC = tested on: HOP-18 NSCLC
HOP-62 NSCLC = tested on: HOP-62 NSCLC
HT29 colon = tested on: HT29 colon
IGROV1 ovarian = tested on: IGROV1 ovarian
K-562 leukemia = tested on: K-562 leukemia
KM12 colon = tested on: KM12 colon
KM20L2 colon = tested on: KM20L2 colon
LXFL 529 NSCLC = tested on: LXFL 529 NSCLC
M14 melanoma = tested on: M14 melanoma
M19-MEL melanoma = tested on: M19-MEL melanoma
MALME-3M melanoma = tested on: MALME-3M melanoma
MOLT-4 leukemia = tested on: MOLT-4 leukemia
NCI-H23 lung = tested on: NCI-H23 lung
NCI-H460 lung = tested on: NCI-H460 lung
NCI-H522 lung = tested on: NCI-H522 lung
OVCAR-3 ovarian = tested on: OVCAR-3 ovarian
OVCAR-4 ovarian = tested on: OVCAR-4 ovarian
OVCAR-5 ovarian = tested on: OVCAR-5 ovarian
OVCAR-8 ovarian = tested on: OVCAR-8 ovarian
RPMI-8226 leukemia = tested on: RPMI-8226 leukemia
SF-268 CNS = tested on: SF-268 CNS
SF-295 CNS = tested on: SF-295 CNS
SF-539 CNS = tested on: SF-539 CNS
SK-MEL-2 melanoma = tested on: SK-MEL-2 melanoma
SK-MEL-28 melanoma = tested on: SK-MEL-28 melanoma
SK-MEL-5 melanoma = tested on: SK-MEL-5 melanoma
SK-OV-3 ovarian = tested on: SK-OV-3 ovarian
SN12C renal = tested on: SN12C renal
SNB-19 CNS = tested on: SNB-19 CNS
SNB-75 CNS = tested on: SNB-75 CNS
SNB-78 CNS = tested on: SNB-78 CNS
SW-620 colon = tested on: SW-620 colon
TK-10 renal = tested on: TK-10 renal
U251 CNS = tested on: U251 CNS
UACC-257 melanoma = tested on: UACC-257 melanoma
UACC-62 melanoma = tested on: UACC-62 melanoma
UO-31 renal = tested on: UO-31 renal
XF 498 CNS = tested on: XF 498 CNS

## COc1ccc(/C=C2\CCc3ccccc3C2=O)cc1OC
786-0 renal
  TGI: > 100 µM
A498 renal
  TGI: > 100 µM
A549 NSCLC
  TGI: > 100 µM
ACHN renal
  TGI: > 100 µM
CAKI-1 renal
  TGI: > 100 µM
CCRF-CEM leukemia
  TGI: > 100 µM
COLO 205 colon
  TGI: 47.2 µM
DLD-1 colon
  TGI: 56.4 µM
DMS 114 small cell lung
  TGI: 47.1 µM
EKVX NSCLC
  TGI: > 100 µM
HCC-2998 colon
  TGI: > 100 µM
HCT-116 colon
  TGI: 36.7 µM
HCT-15 colon
  TGI: 45.5 µM
HOP-18 NSCLC
  TGI: > 100 µM
HOP-62 NSCLC
  TGI: > 100 µM
HT29 colon
  TGI: > 100 µM
IGROV1 ovarian
  TGI: > 100 µM
K-562 leukemia
  TGI: > 100 µM
KM12 colon
  TGI: 39.5 µM
KM20L2 colon
  TGI: > 100 µM
LXFL 529 NSCLC
  TGI: > 100 µM
M14 melanoma
  TGI: 50 µM
M19-MEL melanoma
  TGI: > 100 µM
MALME-3M melanoma
  TGI: > 100 µM
MOLT-4 leukemia
  TGI: 71.3 µM
NCI-H23 lung
  TGI: > 100 µM
NCI-H460 lung
  TGI: > 100 µM
NCI-H522 lung
  TGI: 47 µM
OVCAR-3 ovarian
  TGI: > 100 µM
OVCAR-4 ovarian
  TGI: 79.6 µM
OVCAR-5 ovarian
  TGI: > 100 µM
OVCAR-8 ovarian
  TGI: > 100 µM
RPMI-8226 leukemia
  TGI: 64.8 µM
SF-268 CNS
  TGI: 62.6 µM
SF-295 CNS
  TGI: 95.9 µM
SF-539 CNS
  TGI: 65.9 µM
SK-MEL-2 melanoma
  TGI: 83.9 µM
SK-MEL-28 melanoma
  TGI: 73.2 µM
SK-MEL-5 melanoma
  TGI: 30.9 µM
SK-OV-3 ovarian
  TGI: 78.9 µM
SN12C renal
  TGI: 95.7 µM
SNB-19 CNS
  TGI: > 100 µM
SNB-75 CNS
  TGI: 76.9 µM
SNB-78 CNS
  TGI: > 100 µM
SW-620 colon
  TGI: 82.5 µM
TK-10 renal
  TGI: > 100 µM
U251 CNS
  TGI: > 100 µM
UACC-257 melanoma
  TGI: 43.1 µM
UACC-62 melanoma
  TGI: 34.1 µM
UO-31 renal
  TGI: > 100 µM
XF 498 CNS
  TGI: 56.5 µM
